Data on seven compounds can be found in patent publication US20090143440A1, “Pyrazoles Useful in the Treatment of Inflammation” (BIOLIPOX AB, priority 2005, published 2009).

The experiment has as its target T1, purified human 15-lipoxygenase (Homo sapiens, UniProt P16050).
T1 sequence (P16050 1-662): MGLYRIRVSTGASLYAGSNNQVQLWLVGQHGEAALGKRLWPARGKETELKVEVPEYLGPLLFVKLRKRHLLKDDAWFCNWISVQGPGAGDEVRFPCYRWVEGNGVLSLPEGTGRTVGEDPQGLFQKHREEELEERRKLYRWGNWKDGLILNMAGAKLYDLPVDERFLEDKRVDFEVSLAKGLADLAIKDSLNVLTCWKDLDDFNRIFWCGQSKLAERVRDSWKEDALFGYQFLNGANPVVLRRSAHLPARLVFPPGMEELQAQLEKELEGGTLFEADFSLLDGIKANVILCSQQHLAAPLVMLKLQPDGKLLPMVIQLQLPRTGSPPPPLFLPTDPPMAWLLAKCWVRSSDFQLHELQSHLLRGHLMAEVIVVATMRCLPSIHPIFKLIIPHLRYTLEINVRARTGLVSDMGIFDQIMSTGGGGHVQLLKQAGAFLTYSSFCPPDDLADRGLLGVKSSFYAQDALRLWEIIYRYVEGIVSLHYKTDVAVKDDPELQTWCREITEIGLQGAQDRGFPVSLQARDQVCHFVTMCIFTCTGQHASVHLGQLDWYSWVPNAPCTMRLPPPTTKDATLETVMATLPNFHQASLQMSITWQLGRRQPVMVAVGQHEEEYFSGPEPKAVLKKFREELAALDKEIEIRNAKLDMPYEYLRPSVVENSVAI
Put plainly: 15-lipoxygenase inhibition assay (arachidonic acid oxidation, HPLC readout). It is filed as biochemical. As to conditions: arachidonic acid substrate, room temperature, PBS pH 7.4. On the procedure:
The assay employed takes advantage of the ability of lipoxygenases to oxidize polyunsaturated fatty acids, containing a 1,4-cis-pentadiene configuration, to their corresponding hydroperoxy or hydroxyl derivatives. In this particular assay, the lipoxygenase was a purified human 15-lipoxygenase and the fatty acid was arachidonic acid. The assay is performed at room temperature (20-22° C.) and the following are added to each well in a 96-well microtiter plate:
a) 35 μL phosphate buffered saline (PBS) (pH 7.4); b) inhibitor (i.e. compound) or vehicle (0.5 μl DMSO); c) 10 μL of a 10× concentrated solution of 15-lipoxygenase in PBS. […] The plate is then incubated for 10 minutes at room temperature; e) the enzymatic reaction is terminated by the addition of 100 μl methanol; and f) the amount of 15-hydroperoxy-eicosatetraenoic acid or 15-hydroxy-eicosatetraenoic acid is measured by reverse phase HPLC.
A word on the IC50: it is the midpoint of a concentration-inhibition curve. A low value points to inhibition by little substance. For the compound `O=C(Nc1ccc(C(F)(F)F)cn1)c1cc(Cl)[nH]n1` [Example 5, 5-Chloro-N-(5-(trifluoromethyl)pyridin-2-yl)pyrazole-3-carboxamide], inhibition was half-maximal at 300 nM (IC50).
Next, `Cc1nc(NC(=O)c2cc(Cl)[nH]n2)ccc1Br` [Example 6, N-(5-bromo-6-methylpyridin-2-yl)-5-chloropyrazole-3-carboxamide]: 320 nM; `O=C(Nc1ccc(F)cn1)c1n[nH]c(C(F)(F)F)c1Cl` [Example 11, 4-Chloro-N-(5-fluoropyridin-2-yl)-5-(trifluoromethyl)pyrazole-3-carboxamide]: 310 nM; `O=C(Nc1ccc(F)cn1)c1cc(C(F)F)[nH]n1` [Example 13, 5-(Difluoromethyl)-N-(5-fluoropyridin-2-yl)pyrazole-3-carboxamide]: 393 nM.
Next, `O=C(Nc1ccc([N+](=O)[O-])cn1)c1cc(Cl)[nH]n1` [Example 14, 5-Chloro-N-(5-nitropyridin-2-yl)pyrazole-3-carboxamide]: 248 nM; `COc1ccc(NC(=O)c2cc(Cl)[nH]n2)nc1` [Example 29, 5-Chloro-N-(5-methoxypyridin-2-yl)pyrazole-3-carboxamide]: 122 nM.
Next, `Cc1ccnc(NC(=O)c2cc[nH]n2)c1` [Example 44]: 346 nM.
